{
  "source": "patent US12377112B2",
  "about": "“Methods of treating neurocognitive disorders, chronic pain and reducing inflammation” (priority 2019, dated 2025)",
  "key": {"[1]": {"system": "healthy subjects", "experiment": "Phase 1 study: Five Dimension Altered States of Consciousness questionnaire (5D-ASC)", "type": "in vivo, human", "conditions": "Post-Treatment Day 0; Psilocybin 10 mg", "from_the_text": "In some embodiments, the Five Dimension Altered States of Consciousness questionnaire (5D-ASC) is utilized to evaluate the safety and/or efficacy of psilocybin. […] The 5 dimensions include oceanic boundlessness, anxious ego dissolution, visionary restructuralization, auditory alterations and reduction of vigilance."}, "[2]": {"system": "healthy subjects", "experiment": "Phase 1 study: Social Cognition Panel (PET, RMET, SSR, SVO, TEQ)", "type": "in vivo, human", "from_the_text": "In some embodiments, Social Cognition Panel scales are utilized to evaluate the safety and/or efficacy of psilocybin. The social cognition panel scales comprise the pictorial empathy test (PET), reading the mind in the eyes test (RMET), social value orientation (SVO) test, the Toronto Empathy Questionnaire (TEQ), and the scale of social responsibility (SSR).\nIn some embodiments, the Pictorial Empathy Test (PET) is utilized to evaluate the effect of psilocybin on affective empathy.\nIn some embodiments, Reading the Mind in the Eyes Test (RMET) is utilized to evaluate the safety and/or efficacy of psilocybin. The RMET has 36 items, in which subjects are presented with a photograph of the eyes region of the face and must choose 1 of 4 adjectives or phrases to describe the mental state of the person pictured. A definition handout is provided at the beginning of the task and a practice item precedes the first trial.\nIn some embodiments, the Social Value Orientation (SVO) test is utilized to evaluate the safety and/or efficacy of psilocybin. The SVO Slider Measure has 6 primary items with 9 secondary (and optional) items. All of the items have the same general form. Each item is a resource allocation choice over a well-defined continuum of joint payoffs.\nIn some embodiments, the Toronto Empathy Questionnaire (TEQ) is utilized to evaluate the safety and/or efficacy of psilocybin. The TEQ represents empathy as a primarily emotional process. […] The TEQ is a brief, reliable and valid instrument for the assessment of empathy. In some embodiments, after treating according to the methods of the disclosure, a subject's TEQ score increases by about 5%, about 10%, about 15%, about 20%, about 25%, about 30%, about 35%, about 40%, about 45%, about 50%, about 55%, about 60%, about 65%, about 70%, about 75%, about 80%, about 85%, about 90%, about 95%, or about 100%, about 110%, about 120%, about 130%, about 140%, about 150%, about 160%, about 170%, about 180%, about 190%, about 200%, about 210%, about 220%, about 230%, about 240%, about 250%, about 260%, about 270%, about 280%, about 290%, or about 300%, or more, compared to prior to treatment.\nIn some embodiments, the Scale of Social Responsibility (SSR) is utilized to evaluate the safety and/or efficacy of psilocybin. The SSR measures perceptions regarding the importance of ethics and social responsibility.\nThe Pictorial Empathy Test (PET), Reading the Mind in the Eyes Test (RMET), Scale of Social Responsibility (SSR), Social Value Orientation (SVO), and Toronto Empathy Questionnaire (TEQ) were performed. Table 28 summarizes the results of the mixed model for repeated measures (MMRM) analysis for each of the aforementioned social cognition panel scales measured on Day 7 and Day 84 after study drug administration."}},
  "data": [
    {"smiles": "CN(C)CCc1c[nH]c2cccc(OP(=O)(O)O)c12", "note": "[Psilocybin, psilocybin]", "values": [
      {"measurement": "5D-ASC Complex imagery, LS mean", "setting": "[1]", "result": 53.0},
      {"measurement": "PET change from baseline, LS mean difference Psilocybin 10 mg-Placebo", "setting": "[2]; Day 7", "result": "−0.1"},
      {"measurement": "PET change from baseline, LS mean difference Psilocybin 25mg-10mg", "setting": "[2]; Day 7", "result": 0.3},
      {"measurement": "PET change from baseline, LS mean difference Psilocybin 25 mg-Placebo", "setting": "[2]; Day 7", "result": 0.2},
      {"measurement": "RMET change from baseline, LS mean difference Psilocybin 10 mg-Placebo", "setting": "[2]; Day 7", "result": 0.1},
      {"measurement": "RMET change from baseline, LS mean difference Psilocybin 25mg-10mg", "setting": "[2]; Day 7", "result": 0.0},
      {"measurement": "RMET change from baseline, LS mean difference Psilocybin 25 mg-Placebo", "setting": "[2]; Day 7", "result": 0.2},
      {"measurement": "SSR compliance social rules change from baseline, LS mean difference Psilocybin 10 mg-Placebo", "setting": "[2]; Day 7", "result": 0.0},
      {"measurement": "SSR compliance social rules change from baseline, LS mean difference Psilocybin 25mg-10mg", "setting": "[2]; Day 7", "result": 0.1},
      {"measurement": "SSR compliance social rules change from baseline, LS mean difference Psilocybin 25 mg-Placebo", "setting": "[2]; Day 7", "result": 0.1},
      {"measurement": "SSR fulfilling expectations change from baseline, LS mean difference Psilocybin 10 mg-Placebo", "setting": "[2]; Day 7", "result": 0.1},
      {"measurement": "SSR fulfilling expectations change from baseline, LS mean difference Psilocybin 25mg-10mg", "setting": "[2]; Day 7", "result": 0.1},
      {"measurement": "SSR fulfilling expectations change from baseline, LS mean difference Psilocybin 25 mg-Placebo", "setting": "[2]; Day 7", "result": 0.2},
      {"measurement": "SSR global change from baseline, LS mean difference Psilocybin 10 mg-Placebo", "setting": "[2]; Day 7", "result": 1.2},
      {"measurement": "SSR global change from baseline, LS mean difference Psilocybin 25mg-10mg", "setting": "[2]; Day 7", "result": 1.6},
      {"measurement": "SSR global change from baseline, LS mean difference Psilocybin 25 mg-Placebo", "setting": "[2]; Day 7", "result": 2.8},
      {"measurement": "SVO angle change from baseline, LS mean difference Psilocybin 10 mg-Placebo", "setting": "[2]; Day 7", "result": 3.4},
      {"measurement": "SVO angle change from baseline, LS mean difference Psilocybin 25mg-10mg", "setting": "[2]; Day 7", "result": "−1.3"},
      {"measurement": "SVO angle change from baseline, LS mean difference Psilocybin 25 mg-Placebo", "setting": "[2]; Day 7", "result": 2.1},
      {"measurement": "SVO type change from baseline, LS mean difference Psilocybin 10 mg-Placebo", "setting": "[2]; Day 7", "result": 0.1},
      {"measurement": "SVO type change from baseline, LS mean difference Psilocybin 25mg-10mg", "setting": "[2]; Day 7", "result": "−0.0"},
      {"measurement": "SVO type change from baseline, LS mean difference Psilocybin 25 mg-Placebo", "setting": "[2]; Day 7", "result": 0.1},
      {"measurement": "TEQ change from baseline, LS mean difference Psilocybin 10 mg-Placebo", "setting": "[2]; Day 7", "result": 0.1},
      {"measurement": "TEQ change from baseline, LS mean difference Psilocybin 25mg-10mg", "setting": "[2]; Day 7", "result": 0.1},
      {"measurement": "TEQ change from baseline, LS mean difference Psilocybin 25 mg-Placebo", "setting": "[2]; Day 7", "result": 0.2},
      {"measurement": "PET change from baseline, LS mean difference Psilocybin 10 mg-Placebo", "setting": "[2]; Day 84", "result": "−0.1"},
      {"measurement": "PET change from baseline, LS mean difference Psilocybin 25mg-10mg", "setting": "[2]; Day 84", "result": 0.3},
      {"measurement": "PET change from baseline, LS mean difference Psilocybin 25 mg-Placebo", "setting": "[2]; Day 84", "result": 0.1},
      {"measurement": "RMET change from baseline, LS mean difference Psilocybin 10 mg-Placebo", "setting": "[2]; Day 84", "result": 0.2},
      {"measurement": "RMET change from baseline, LS mean difference Psilocybin 25mg-10mg", "setting": "[2]; Day 84", "result": 0.3},
      {"measurement": "RMET change from baseline, LS mean difference Psilocybin 25 mg-Placebo", "setting": "[2]; Day 84", "result": 0.5},
      {"measurement": "SSR compliance social rules change from baseline, LS mean difference Psilocybin 10 mg-Placebo", "setting": "[2]; Day 84", "result": "−0.0"},
      {"measurement": "SSR compliance social rules change from baseline, LS mean difference Psilocybin 25mg-10mg", "setting": "[2]; Day 84", "result": 0.1},
      {"measurement": "SSR compliance social rules change from baseline, LS mean difference Psilocybin 25 mg-Placebo", "setting": "[2]; Day 84", "result": 0.1},
      {"measurement": "SSR fulfilling expectations change from baseline, LS mean difference Psilocybin 10 mg-Placebo", "setting": "[2]; Day 84", "result": "−0.1"},
      {"measurement": "SSR fulfilling expectations change from baseline, LS mean difference Psilocybin 25mg-10mg", "setting": "[2]; Day 84", "result": 0.2},
      {"measurement": "SSR fulfilling expectations change from baseline, LS mean difference Psilocybin 25 mg-Placebo", "setting": "[2]; Day 84", "result": 0.0},
      {"measurement": "SSR global change from baseline, LS mean difference Psilocybin 10 mg-Placebo", "setting": "[2]; Day 84", "result": 0.3},
      {"measurement": "SSR global change from baseline, LS mean difference Psilocybin 25mg-10mg", "setting": "[2]; Day 84", "result": 1.8},
      {"measurement": "SSR global change from baseline, LS mean difference Psilocybin 25 mg-Placebo", "setting": "[2]; Day 84", "result": 2.2},
      {"measurement": "SVO angle change from baseline, LS mean difference Psilocybin 10 mg-Placebo", "setting": "[2]; Day 84", "result": 3.4},
      {"measurement": "SVO angle change from baseline, LS mean difference Psilocybin 25mg-10mg", "setting": "[2]; Day 84", "result": "−1.0"},
      {"measurement": "SVO angle change from baseline, LS mean difference Psilocybin 25 mg-Placebo", "setting": "[2]; Day 84", "result": 2.4},
      {"measurement": "SVO type change from baseline, LS mean difference Psilocybin 10 mg-Placebo", "setting": "[2]; Day 84", "result": 0.1},
      {"measurement": "SVO type change from baseline, LS mean difference Psilocybin 25mg-10mg", "setting": "[2]; Day 84", "result": "−0.0"},
      {"measurement": "SVO type change from baseline, LS mean difference Psilocybin 25 mg-Placebo", "setting": "[2]; Day 84", "result": 0.1},
      {"measurement": "TEQ change from baseline, LS mean difference Psilocybin 10 mg-Placebo", "setting": "[2]; Day 84", "result": 0.1},
      {"measurement": "TEQ change from baseline, LS mean difference Psilocybin 25mg-10mg", "setting": "[2]; Day 84", "result": 0.0},
      {"measurement": "TEQ change from baseline, LS mean difference Psilocybin 25 mg-Placebo", "setting": "[2]; Day 84", "result": 0.1},
      {"measurement": "SSR fulfilling expectations change from baseline, LS mean", "setting": "[2]; Psilocybin 10 mg, Day 7", "result": "−0.1"},
      {"measurement": "SSR fulfilling expectations change from baseline, LS mean", "setting": "[2]; Psilocybin 10 mg, Day 84", "result": "−0.2"},
      {"measurement": "TEQ change from baseline, LS mean", "setting": "[2]; Psilocybin 10 mg, Day 84", "result": "−0.1"},
      {"measurement": "SSR fulfilling expectations change from baseline, LS mean", "setting": "[2]; Psilocybin 25 mg, Day 7", "result": "−0.0"},
      {"measurement": "SSR fulfilling expectations change from baseline, LS mean", "setting": "[2]; Psilocybin 25 mg, Day 84", "result": "−0.0"},
      {"measurement": "TEQ change from baseline, LS mean", "setting": "[2]; Psilocybin 25 mg, Day 84", "result": "−0.0"}
    ]}
  ]
}
